The text below walks through data of US5494907A, “11-β substituted-19-nor steroids” (Roussel UCLAF, priority 1993, dated 1996).

For the assay, the target named is T1, hGR (recombinant human glucocorticoid receptor) (Homo sapiens, UniProt P04150).
T1 construct: made in house; host or cells: SF9 insect cells, recombinant baculovirus
T1 sequence (P04150 1-777): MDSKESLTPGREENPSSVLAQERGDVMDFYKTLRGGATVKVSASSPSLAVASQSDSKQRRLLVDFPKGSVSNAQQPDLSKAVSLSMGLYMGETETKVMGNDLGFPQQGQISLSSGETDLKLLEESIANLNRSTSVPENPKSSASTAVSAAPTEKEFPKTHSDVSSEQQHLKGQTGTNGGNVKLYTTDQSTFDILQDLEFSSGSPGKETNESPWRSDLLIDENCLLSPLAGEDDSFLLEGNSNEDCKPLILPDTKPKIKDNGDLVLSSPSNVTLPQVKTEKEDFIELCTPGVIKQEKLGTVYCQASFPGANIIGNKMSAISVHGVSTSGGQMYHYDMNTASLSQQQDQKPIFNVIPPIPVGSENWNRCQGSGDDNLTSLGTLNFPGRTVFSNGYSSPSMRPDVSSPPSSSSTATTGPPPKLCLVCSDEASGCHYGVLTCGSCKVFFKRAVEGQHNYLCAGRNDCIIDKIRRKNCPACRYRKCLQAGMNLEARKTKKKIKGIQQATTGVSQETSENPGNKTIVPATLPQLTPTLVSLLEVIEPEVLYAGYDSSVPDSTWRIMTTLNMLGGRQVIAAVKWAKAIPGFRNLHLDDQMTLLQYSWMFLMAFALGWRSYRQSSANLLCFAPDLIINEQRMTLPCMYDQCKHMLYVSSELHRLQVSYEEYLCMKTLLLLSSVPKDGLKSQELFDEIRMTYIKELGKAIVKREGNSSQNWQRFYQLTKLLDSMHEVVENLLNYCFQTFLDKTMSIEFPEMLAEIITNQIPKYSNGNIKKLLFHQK
Put plainly: Relative bond affinity (RBA) on recombinant human glucocorticoid receptor, displacement of tritiated 6,21-dimethyl-Δ1,4,6-pregnatrien-11β,17β-diol-20-yn-3-one. It is filed as binding. The following applies: for RBA hGR: Dexamethasone = 100, 0° C., 24 hours; for affinity for the glucocorticoid receptor (in words): conclusion in words. The source says:
1--Activity on the hormonal receptors using either the natural hormonal receptor of a rat (AR), or the recombinant human receptor (PR, GR and ER).
Human glucocorticoid receptor
A supernatant of SF9 cells containing the recombinant human glucocorticoid receptor was obtained by the process described above for the progesterone receptor using the cDNA fragment described HOLLENBERG et al. (Nature (1985), Vol. 318 No. 19/26, p. 635) containing the region coding for the human glucocorticoid receptor. The cells were lysed in a lysis buffer (2). The supernatant was incubated at 0° C. for 24 hours with a constant concentration (T) of 6,21-dimethyl-Δ1,4,6-pregnatrien-11β,17β-diol-20-yn-3-one tritiated in the presence of increasing concentrations either of unlabelled dexamethasone (0-1000×10^-9 M), or of the unlabelled product under test (1 to 25000×10^-9 M). The concentration of bound tritiated 6,21-dimethyl-Δ1,4,6-pregnatrien-11β,17β-diol-20-yn-3-one (B) was then measured in each incubate by the technique of adsorption with carbon dextran.
Calculation of the relative bond affinity (RBA).
The following 2 curves were traced: percentage of bound tritiated hormone B/BO as a function of the logarithm of the concentration of unlabelled reference hormone or as a function of the logarithm of the concentration of the unlabelled product under test.
The straight line of the following equation was determined:
BO=Concentration of bound tritiated hormone in the absence of any unlabelled product,
B=Concentration of bound tritiated hormone in the presence of a concentration X of unlabelled product,
B min=Concentration of bound tritiated hormone in the presence of a large excess of cold reference hormone (500 nM). The intersections of the straight line I50 and the curves allowed the evaluation of the concentrations of unlabelled reference hormone (CH) and of the unlabelled product under test (CX) which inhibited by 50% the specific binding of the tritiated hormone on the receptor.
The relative bond affinity (RBA) of the product under test was determined by the equation:
The RBA's of the reference products estradiol, progesterone, dexamethasone and testosterone were arbitrarily taken to be equal to 100.

For the compound `CCCCN(C)S(=O)(=O)CCCCCOc1ccc([C@H]2C[C@]3(C)[C@@H](O)CC[C@H]3[C@@H]3CCc4cc(O)ccc4[C@H]32)cc1` [Example 7, N-butyl-5-[4-(Δ1,3,5(10)-estratrien-3,17β-diol-11β-yl)phenoxy]-N-methyl-pentanesulfonamide], the “RBA hGR” value came to 152 and the “affinity for the glucocorticoid receptor (in words)” value (from here on “affinity”) is reported as “marked affinity”.

As to `CN(CC(F)(F)C(F)(F)C(F)(F)F)S(=O)(=O)CCCCCOc1ccc([C@H]2C[C@]3(C)[C@@H](O)CC[C@H]3[C@@H]3CCc4cc(O)ccc4[C@H]32)cc1` [Example 8, 5-[4-(Δ1,3,5(10)-estratrien-3,17β-diol-11βyl)-Phenoxy]-N-(2,2,3,3,4,4,4-heptafluorobutyl)-N-methyl-pentanesulfonamide], the “RBA hGR” value came out at 114 and the “affinity” value is “marked affinity”.

Turning to `CCCCNS(=O)(=O)CCCCCOc1ccc([C@H]2C[C@]3(C)[C@@H](O)CC[C@H]3[C@@H]3CCc4cc(O)ccc4[C@H]32)cc1` [Example 2, N-butyl-5-[4-(Δ1,3,5(10)-estratrien-3,17β-diol-11β-yl)phenoxy]-pentanesulfonamide], the “RBA hGR” value was found to be 82 and the “affinity” value is recorded as “marked affinity”.
